Assay results reported in US9174998B2, “(6S,9aS)-N-benzyl-6-[(4-hydroxyphenyl)methyl]-4,7-dioxo-8-({6-[3-(piperazin-1-yl)azetidin-1-yl]pyridin-2-yl}methyl)-2-(prop-2-en-1-yl)-octahydro-1H-pyrazino[2,1-c][1,2,4]triazine-1-carboxamide compound” (Eisai R&D Management Co., Ltd., priority 2013, dated 2015).
≈ marks a conversion by molar mass, not a printed value. Read-outs that look alike come from different tables or passages of the source.

What was measured:
[1] = tested on: human chronic myologenous leukemia cell strain K562; test: Anti-tumor effect in human K562 subcutaneous transplantation model; conditions: day 28
[2] = Evaluation of solubility (DMSO stock into PBS, HPLC-UV); format: physicochemical; conditions: Dulbecco's phosphate-buffered saline pH 7, room temperature, about 15 minutes shaking, values greater than 200 μM regarded as 200 μM, read-out: Test Example 3 solubility
How it was run: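 Kinetic solubility: 20 mM DMSO stock spiked into Dulbecco's PBS pH 7, shaken about 15 min at room temperature, then suction-filtered; filtrate quantified by HPLC-UV against a 200 μM DMSO standard. Values above 200 μM are capped at 200 μM.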

[3] = PAMPA test (parallel artificial membrane permeability assay); format: in vitro ADME; conditions: phosphate buffer pH 6.8, about 200 μM, about 5 hours, room temperature, read-out: Test Example 4 membrane permeation coefficient Pe
How it was run: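 Compounds at about 200 μM in pH 6.8 phosphate buffer with about 1% DMSO on the donor side. Transport across a lipid-precoated PVDF membrane with shaking at 350 rpm, room temperature, about 5 h. Donor and acceptor concentrations measured by HPLC-UV; Pe (cm/s) calculated from these.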

Wnt signal = test: Detection of Wnt signal (TOPglow luciferase reporter, LiCl-stimulated); format: cell-based; conditions: Homo sapiens; HEK293 clone carrying pNeo-TOP reporter; LiCl stimulation; luciferase luminescence; read-out: Test Example 1 IC50 (concentration required for inhibiting the Wnt signal activity by 50%)
How it was run: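 Stable HEK293 clone carrying a TOPglow TCF/Wnt-responsive luciferase reporter, stimulated with 80 mM LiCl in the diluted sample medium alongside compound; luminescence read with Bright-Glo 6 h after addition. IC50 derived from activity scaled between LiCl-only wells (100%) and wells lacking both LiCl and sample (0%).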

[4] = Evaluation of metabolic stability; format: in vitro ADME, human; conditions: 0.2 mg/mL HLM, 0.1 μM test substance, 15 minutes at 37° C., with vs without NADPH production
How it was run: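 Pooled human liver microsomes (0.2 mg/mL) in 0.1 M potassium phosphate pH 7.4 with EDTA, MgCl2 and an NADPH-generating system (NADP+, glucose-6-phosphate, G6PDH). Residual ratio by LC-MS/MS, comparing with versus without NADPH generation.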

[5] = aqueous buffer, kinetic from dmso stock

Row | Structure (SMILES) | solubility [2, 5] | Papp [3] | IC50 (Wnt signal) | Test Example 2 residual ratio of the test substance [4] | solubility [2] | the number of individuals in which a tumor was not observed by visual judgment/total number of mice ([1]; Dasatinib 5 mg/kg alone, oral qd, 5 days on/2 days off, two cycles) | the number of individuals in which a tumor was not observed by visual judgment/total number of mice ([1]; Compound of Example 1 35 mg/kg oral bid for 5 days combined with Dasatinib 5 mg/kg qd, * P 0.05 or less vs Dasatinib alone (Fisher's test)) | the number of individuals in which a tumor was not observed by visual judgment/total number of mice ([1]; Compound of Example 1 50 mg/kg oral bid for 5 days combined with Dasatinib 5 mg/kg qd, *** P 0.01 or less vs Dasatinib alone (Fisher's test)) | the number of individuals in which a tumor was not observed by visual judgment/total number of mice ([1]; Compound of Example 1 75 mg/kg oral bid for 5 days combined with Dasatinib 5 mg/kg qd, *** P 0.01 or less vs Dasatinib alone (Fisher's test))
1 | Cc1nc(Nc2ncc(C(=O)Nc3c(C)cccc3Cl)s2)cc(N2CCN(CCO)CC2)n1 [Dasatinib, reference compound] |  |  |  |  |  | 0/9 |  |  | 
2 | C=CCN1CC(=O)N2[C@@H](Cc3ccc(O)cc3F)C(=O)N(Cc3cccc(N4CC(N5CCN(C)C[C@@H]5C)C4)n3)C[C@@H]2N1C(=O)NCc1ccccc1 [Example 15, (6S,9aS)-N-Benzyl-8-((6-(3-((2S)-2,4-dimethylpiperazin-1-yl)azetidin-1-yl)pyridin-2-yl)methyl)-6-((2-fluoro-4-hydroxyphenyl)methyl)-4,7-dioxo-2-(prop-2-en-1-yl)-octahydro-1H-pyrazino[2,1-c][1,2,4]triazine-1-carboxamide] | 195 µM (≈ 142 µg/mL) | 2.38 ×10⁻⁶ cm/s | 75 nM | 45% |  |  |  |  | 
3 | C=CCN1CC(=O)N2[C@@H](Cc3c(F)cc(O)cc3F)C(=O)N(Cc3cccc(N4CC(N5CCN(C(C)C)CC5)C4)n3)C[C@@H]2N1C(=O)NCc1ccccc1 [Example 12, (6S,9aS)-N-Benzyl-6-((2,6-difluoro-4-hydroxyphenyl)methyl)-4,7-dioxo-2-(prop-2-en-1-yl)-8-((6-(3-(4-(propan-2-yl)piperazin-1-yl)azetidin-1-yl)pyridin-2-yl)methyl)-octahydro-1H-pyrazino[2,1-c][1,2,4]triazine-1-carboxamide] | 188 µM (≈ 142 µg/mL) | 0.87 ×10⁻⁶ cm/s | 96 nM | 38% |  |  |  |  | 
4 | C=CCN1CC(=O)N2[C@@H](Cc3ccc(O)cc3F)C(=O)N(Cc3cccc(N4CC(N5CCN(C(C)C)CC5)C4)n3)C[C@@H]2N1C(=O)NCc1ccccc1 [Example 11, (6S,9aS)-N-Benzyl-6-((2-fluoro-4-hydroxyphenyl)methyl)-4,7-dioxo-2-(prop-2-en-1-yl)-8-((6-(3-(4-(propan-2-yl)piperazin-1-yl)azetidin-1-yl)pyridin-2-yl)methyl)-octahydro-1H-pyrazino[2,1-c][1,2,4]triazine-1-carboxamide] | 192 µM (≈ 142 µg/mL) | 2.55 ×10⁻⁶ cm/s | 39 nM | 26% |  |  |  |  | 
5 | C=CCN1CC(=O)N2[C@@H](Cc3ccc(O)cc3F)C(=O)N(Cc3ccc(F)c(N4CC(N(C)CCN(C)C)C4)n3)C[C@@H]2N1C(=O)NCc1ccccc1 [Reference Example 6, (6S,9aS)-N-Benzyl-8-((6-(3-((2-(dimethylamino)ethyl)(methyl)amino)azetidin-1-yl)-5-fluoropyridin-2-yl)methyl)-6-((2-fluoro-4-hydroxyphenyl)methyl)-4,7-dioxo-2-(prop-2-en-1-yl)-octahydro-1H-pyrazino[2,1-c][1,2,4]triazine-1-carboxamide] | 190 µM (≈ 139 µg/mL) | 1.7 ×10⁻⁶ cm/s | 190 nM | 28% |  |  |  |  | 
6 | C=CCN1CC(=O)N2[C@@H](Cc3ccc(O)cc3F)C(=O)N(Cc3cccc(N4CC(N5CCN(C)[C@@H](C)C5)C4)n3)C[C@@H]2N1C(=O)NCc1ccccc1 [Example 4, (6S,9aS)-N-Benzyl-8-((6-(3-((3S)-3,4-dimethylpiperazin-1-yl)azetidin-1-yl)pyridin-2-yl)methyl)-6-((2-fluoro-4-hydroxyphenyl)methyl)-4,7-dioxo-2-(prop-2-en-1-yl)-octahydro-1H-pyrazino[2,1-c][1,2,4]triazine-1-carboxamide] | 199 µM (≈ 144 µg/mL) | 2.03 ×10⁻⁶ cm/s | 60 nM | 44% |  |  |  |  | 
7 | C=CCN1CC(=O)N2[C@@H](Cc3c(F)cc(O)cc3F)C(=O)N(Cc3cccc(N4CC(N5CCN(C)CC5)C4)n3)C[C@@H]2N1C(=O)NCc1ccccc1 [Example 14, (6S,9aS)-N-Benzyl-6-((2,6-difluoro-4-hydroxyphenyl)methyl)-8-((6-(3-(4-methylpiperazin-1-yl)azetidin-1-yl)pyridin-2-yl)methyl)-4,7-dioxo-2-(prop-2-en-1-yl)-octahydro-1H-pyrazino[2,1-c][1,2,4]triazine-1-carboxamide] | 197 µM (≈ 144 µg/mL) | 0.39 ×10⁻⁶ cm/s | 270 nM | 69% |  |  |  |  | 

The next lines start with results.

Row | solubility [2, 5] | Papp [3] | IC50 (Wnt signal) | Test Example 2 residual ratio of the test substance [4] | solubility [2] | Structure (SMILES) | the number of individuals in which a tumor was not observed by visual judgment/total number of mice ([1]; Dasatinib 5 mg/kg alone, oral qd, 5 days on/2 days off, two cycles) | the number of individuals in which a tumor was not observed by visual judgment/total number of mice ([1]; Compound of Example 1 35 mg/kg oral bid for 5 days combined with Dasatinib 5 mg/kg qd, * P 0.05 or less vs Dasatinib alone (Fisher's test)) | the number of individuals in which a tumor was not observed by visual judgment/total number of mice ([1]; Compound of Example 1 50 mg/kg oral bid for 5 days combined with Dasatinib 5 mg/kg qd, *** P 0.01 or less vs Dasatinib alone (Fisher's test)) | the number of individuals in which a tumor was not observed by visual judgment/total number of mice ([1]; Compound of Example 1 75 mg/kg oral bid for 5 days combined with Dasatinib 5 mg/kg qd, *** P 0.01 or less vs Dasatinib alone (Fisher's test))
8 | 184 µM (≈ 134 µg/mL) | 3.75 ×10⁻⁶ cm/s | 44 nM | 28% |  | C=CCN1CC(=O)N2[C@@H](Cc3ccc(O)cc3F)C(=O)N(Cc3ccc(F)c(N4CC(N5CCN(C)CC5)C4)n3)C[C@@H]2N1C(=O)NCc1ccccc1 [Example 10, (6S,9aS)-N-Benzyl-6-((2-fluoro-4-hydroxyphenyl)methyl)-8-((5-fluoro-6-(3-(4-methylpiperazin-1-yl)azetidin-1-yl)pyridin-2-yl)methyl)-4,7-dioxo-2-(prop-2-en-1-yl)-octahydro-1H-pyrazino[2,1-c][1,2,4]triazine-1-carboxamide] |  |  |  | 
9 | 197 µM (≈ 143 µg/mL) | 2.01 ×10⁻⁶ cm/s | 60 nM | 47% |  | C=CCN1CC(=O)N2[C@@H](Cc3ccc(O)cc3F)C(=O)N(Cc3cccc(N4CC(N5CCN(CC)CC5)C4)n3)C[C@@H]2N1C(=O)NCc1ccccc1 [Example 1, (6S,9aS)-N-Benzyl-8-((6-(3-(4-ethylpiperazin-1-yl)azetidin-1-yl)pyridin-2-yl)methyl)-6-((2-fluoro-4-hydroxyphenyl)methyl)-4,7-dioxo-2-(prop-2-en-1-yl)-octahydro-1H-pyrazino[2,1-c][1,2,4]triazine-1-carboxamide] |  | 6/10* | 9/10*** | 10/10***
10 |  | 0.52 ×10⁻⁶ cm/s | 140 nM | 56% | 200 µM (≈ 149 µg/mL) | C=CCN1CC(=O)N2[C@@H](Cc3c(F)cc(O)cc3F)C(=O)N(Cc3cccc(N4CC(N5CCN(CC)CC5)C4)n3)C[C@@H]2N1C(=O)NCc1ccccc1 [Example 13, (6S,9aS)-N-Benzyl-6-((2,6-difluoro-4-hydroxyphenyl)methyl)-8-((6-(3-(4-ethylpiperazin-1-yl)azetidin-1-yl)pyridin-2-yl)methyl)-4,7-dioxo-2-(prop-2-en-1-yl)-octahydro-1H-pyrazino[2,1-c][1,2,4]triazine-1-carboxamide] |  |  |  | 
11 |  | 1.33 ×10⁻⁶ cm/s | 150 nM | 54% | 200 µM (≈ 142 µg/mL) | C=CCN1CC(=O)N2[C@@H](Cc3ccc(O)cc3F)C(=O)N(Cc3cccc(N4CC(N5CCN(C)CC5)C4)n3)C[C@@H]2N1C(=O)NCc1ccccc1 [Example 3, (6S,9aS)-N-Benzyl-6-((2-fluoro-4-hydroxyphenyl)methyl)-8-((6-(3-(4-methylpiperazin-1-yl)azetidin-1-yl)pyridin-2-yl)methyl)-4,7-dioxo-2-(prop-2-en-1-yl)-octahydro-1H-pyrazino[2,1-c][1,2,4]triazine-1-carboxamide] |  |  |  | 
12 | 189 µM (≈ 137 µg/mL) | 2.77 ×10⁻⁶ cm/s | 95 nM | 29% |  | C=CCN1CC(=O)N2[C@@H](Cc3ccc(O)cc3)C(=O)N(Cc3ccc(F)c(N4CC(N5CCN(CC)CC5)C4)n3)C[C@@H]2N1C(=O)NCc1ccccc1 [Example 7, (6S,9aS)-N-Benzyl-8-((6-(3-(4-ethylpiperazin-1-yl)azetidin-1-yl)-5-fluoropyridin-2-yl)methyl)-6-((4-hydroxyphenyl)methyl)-4,7-dioxo-2-(prop-2-en-1-yl)-octahydro-1H-pyrazino[2,1-c][1,2,4]triazine-1-carboxamide] |  |  |  | 
13 | 199 µM (≈ 141 µg/mL) | 1.04 ×10⁻⁶ cm/s | 400 nM | 57% |  | C=CCN1CC(=O)N2[C@@H](Cc3ccc(O)cc3)C(=O)N(Cc3cccc(N4CC(N5CCN(C)[C@@H](C)C5)C4)n3)C[C@@H]2N1C(=O)NCc1ccccc1 [Example 27, (6S,9aS)-N-Benzyl-8-((6-(3-((3S)-3,4-dimethylpiperazin-1-yl)azetidin-1-yl)pyridin-2-yl)methyl)-6-((4-hydroxyphenyl)methyl)-4,7-dioxo-2-(prop-2-en-1-yl)-octahydro-1H-pyrazino[2,1-c][1,2,4]triazine-1-carboxamide] |  |  |  | 
